{
  "source": "patent US6858383B2",
  "about": "“Compositions and methods for the treatment and prevention of cardiovascular diseases and disorders, and for identifying agents therapeutic therefor” (Medlyte, Inc., priority 2000, dated 2005)",
  "key": {"[1]": {"experiment": "Fate of 3H-SPH incubated in whole blood, TLC", "assay_type": "in vitro ADME, human", "procedure": "Experiments were carried out to determine the fate of any SPH that might be released from cells or platelets into the extracellular compartment. Whole blood samples were incubated in vitro for up to 15 hours with ^3H-SPH, followed by thin layer chromatography (TLC) to examine which, if any, of the known metabolic products of the sphingomyelin pathway were radiolabeled as a result of metabolism of radiolabeled SPH."}, "[2]": {"target": "tumor necrosis factor alpha (TNFα) released by cultured rat cardiomyocytes (rat) (UniProt P16599)", "sequence (P16599 80-235 limits assumed)": "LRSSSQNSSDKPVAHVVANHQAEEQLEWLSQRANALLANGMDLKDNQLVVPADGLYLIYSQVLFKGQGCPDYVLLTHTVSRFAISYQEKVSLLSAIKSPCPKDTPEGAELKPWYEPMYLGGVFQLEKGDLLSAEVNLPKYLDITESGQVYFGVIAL", "experiment": "cell-based or functional assay"}, "[3]": {"system": "Adult rat cardiomyocytes", "experiment": "Hypoxia-induced sphingosine (SPH) production/release in cultured cardiomyocytes, HPLC of extracted sphingolipids", "assay_type": "cell-based", "procedure": "Adult rat cardiomyocytes were subjected to hypoxic conditions as described above and assayed for their ability to produce sphingolipid bases involved in the sphingomyelin signal transduction cascade.\nCardiomyocytes were cultured on plastic dishes that were placed in a humidified modular incubator chamber (ICN Biomedicals, Aurora, Ohio) pressurized to 0.04-0.05 psi by the particular gas mixture used in the treatment. Warm (37° C.) Tyrode's solution containing 0.2 mM BSA, ampicillin ([…]), kanamycin (100 mg/mL) and fungizone (20 μg/mL) was gassed in a 50 mL sterile conical for 15 minutes with 95%N2/5% CO2 prior to adding the solution to the cultured cells. The pO2 was monitored by a Micro pO2 System oxygen electrode (Lasar Research Labs, Los Angeles, Calif.) and found to be 4.0 PPM for the duration of the hypoxia condition. […] The pH of control and experimental cell cultures was monitored with a micro pH electrode (Beetrode pH Electrodes, Sarasota, Fla.) and remained constant at pH=7.26+/−0.02 for normoxic cells and 7.15+/−0.03 for hypoxic cells throughout the experiment. […]\nThe HPLC analysis was performed using a Beckman (Fullerton, Calif.) System Gold 118 Solvent Module and 507e Autosampler. A Jasco (Easton, Md.) FP-920 Intelligent Fluorescence Detector was used with an excitation wavelength of 330 nm and emission wavelength of 455 nm. […]"}, "[4]": {"system": "cultured cardiomyocytes", "experiment": "S-1-P applied to cultured cardiomyocytes: apoptosis and calcium deregulation", "assay_type": "cell-based, rat", "details": "S-1-P treatment of cultured cardiomyocytes", "text": "Exogenously applied […] is capable of activating blood platelets (Yatomi et al., J. Biol. Chem. 272:5291-5297, 1997; Yatomi et al., Blood 86:193-202, 1995). […] The first is to act on the platelets to promote the clotting response and further exacerbate the ischemia. Secondly, the platelet-derived […] acts in a paracrine fashion on neighboring endothelial and myocardial cells to promote calcium deregulation and apoptosis. On the cardiomyocytes, the consequence is to promote calcium overload. The endothelial cell response is to promote vasoconstriction and further limit the blood supply through the coronary vasculature. […] Extracellular […] is the ligand for a novel class of G protein-coupled receptors (GPCRs). Such receptors were first described as an orphan GPCRs cloned from human umbilical vein endothelial cells (Hla et al., J. Biol. Chem. 265:9308-9313, 1990; Lynch et al., Trends Pharmacol. Sci. 20:473-475, 1999). […] However, cardiac tissues are composed of diverse cell types, including endothelial cells, which have high levels of EDG-1 expression (Hla et al., J. Biol. Chem. 265:9308-9313, 1990). […] Recently a EDG-1 gene and its protein expression were determined in primary cultures of neonatal rat cardiomyocytes and in adult rat ventricular tissue (Nakajima et al., Biophysical J. 78:319 A, 2000). […]"}, "[5]": {"system": "cultured cardiomyocytes", "details": "S-1-P applied to cultured cardiomyocytes; cited from earlier work"}, "[6]": {"system": "isolated perfused rat heart", "experiment": "Langendorff rat heart model of global ischemia and reperfusion", "details": "0.1 mM gentamicin recirculated 30 min; 40 min global ischemia; 45 min reperfusion", "procedure": "A rat model of ischemia and reperfusion was used to evaluate the therapeutic potential of a gentamicin, an amino glycoside that inhibits sphingomyelinase.\nGentamicin vehicle solution was prepared as follows. A stock solution of 0.1 M Gentamicin was prepared by adding 70 mg of Gentamicin Sulfate (Sigma, G1264) to 1 ml of KH Buffer. KH buffer (150 ml) was combined with 150 μl)l of the stock solution to yield a 0.1 mM solution.\nThe protocol used was essentially that described by Sakai et al. (A device for recording left ventricular contraction and electrocardiogram in nonworking isolated perfused rat heart, Jpn J Pharmacol 28:223-9, 1978), and Zelinski et al., (Phosphatidylcholine biosynthesis in isolated hamster heart, J Biol Chem. 255:11423-8, 1980) with the exception, in the latter instance, that rat studies were used in the experiments described herein instead of hamster hearts.\nIn brief, rats were anesthetized and their hearts were excised. The isolated hearts were cannulated and attached to Langendorff perfusion apparatus, and perfused with KH buffer. The hearts were allowed to stabilize for 5-10 min. […]\nA small hole was cut in the left atrium of each animal to expose the mitral valve. […] Left ventricular pressure was measured and recorded using the MacLab program. […]\nAfter about 45 min., the perfusate was turned off and the ventricular pressure was no longer recorded. […]"}},
  "data": [
    {"compound": "CCCCCCCCCCCCC/C=C/[C@@H](O)[C@@H](N)CO", "note": "[^3H-SPH, D(+)-erythro-2-amino-4-trans-octadecene-1,3-diol]", "values": [
      {"measurement": "conversion to ceramide or sphingomyelin", "setting": "[1]; whole blood in vitro, up to 15 hours", "result": "not converted"},
      {"measurement": "conversion of 3H-SPH to 3H-S-1-P", "setting": "[1]; whole blood in vitro, within 20 minutes", "result": 86, "unit": "%"}
    ]},
    {"compound": "TNFRII:Fc receptor fragment (from UniProt P20333 23-257) (Fc fusion)", "values": [
      {"measurement": "SPH release from hypoxic cardiomyocytes after pretreatment with TNFRII:Fc", "setting": "[2]", "result": 3, "unit": "fold"}
    ]},
    {"compound": "C[N+](C)(C)C[C@H](O)CC(=O)[O-]", "note": "[L-carnitine]", "values": [
      {"measurement": "hypoxia-induced production of sphingosine", "setting": "[3]; cellular model", "result": "blocks"},
      {"measurement": "amount of total SPH", "setting": "[3]; pretreated 30 min prior to hypoxia (5 hours), TNFRII:Fc 0.5 ng/mL, L-carnitine 20 ng/mL, adult cardiomyocytes", "result": "significantly (p<0.01) reducing"}
    ]},
    {"compound": "CCCCCCCCCCCCC/C=C/[C@@H](O)[C@@H](N)COP(=O)(O)O", "note": "[S-1-P, sphingosine-1-phosphate]", "values": [
      {"measurement": "average calcium level combining both diastolic and systolic responses", "setting": "[4]", "result": "significantly increased"},
      {"measurement": "stability in whole blood", "setting": "[1]; 15-hour time course", "result": "very stable"},
      {"measurement": "apoptosis of cultured cardiomyocytes", "setting": "[5]", "result": "resulted in apoptosis"}
    ]},
    {"compound": "gentamicin", "values": [
      {"measurement": "ischemia and reperfusion injury (left ventricular pressure)", "setting": "[6]", "result": "mitigated"}
    ]}
  ]
}
